Earlier results in patent US20050113573A1, “Nitroso compounds to treat ischemia” (priority 2003, published 2005).

Tests used:
[1] = tested on: cerebral infarcts; settings: versus vehicle treated animals
[2] = tested on: rabbit iliac arteries; settings: rabbit iliac arteries after balloon angioplasty
[3] = tested on: ischemically injured livers; settings: severe ischemia/reperfusion
[4] = tested on: smooth muscle cell proliferation; settings: pigs
[5] = 700 stable coronary patients, treated before the angioplasty
[6] = tested on: platelet adhesion; settings: pigs
[7] = tested on: intimal proliferation and platelet deposition; settings: rabbits, local administration, after vascular arterial balloon injury
[8] = tested on: neointimal proliferation; settings: rat
[9] = tested on: femoral arteries; settings: hypercholesterolemic mice, prolonged treatment

## N=C(N)NCCC[C@H](N)C(=O)O [L-arginine]
[1]
  cerebral infarcts: smaller cerebral infarcts than those in vehicle treated animals
[2]
  neointimal area: significant reduction of the neointimal area
[3]
  liver function, neutrophil infiltration and animal survival after liver ischemia/reperfusion injury: beneficial for the liver after severe ischemia/reperfusion

## CCOC(=O)[N-]c1cn(N2CCOCC2)n[o+]1 [molsidomine]
[4]
  smooth muscle cell proliferation following balloon angioplasty: inhibits smooth muscle cell proliferation following balloon angioplasty
[5]
  clinical outcome: no effect on the clinical outcome
  long-term angiographic result: modest improvement in the long-term angiographic result
[2]
  neointimal area: significant reduction of the neointimal area

## N=c1c[n+](N2CCOCC2)[n-]o1 [3-morpholino-sydnonimine]
[6]
  effect on platelet adhesion: antiadhesive effects

## S-nitroso-bovine serum albumin: protein adduct of nitric oxide, locally delivered
[7]
  intimal proliferation and platelet deposition: inhibited intimal proliferation and platelet deposition

## CC(C(=O)OCCCCO[N+](=O)[O-])c1ccc(-c2ccccc2)c(F)c1 (stereo not shown) [HCT-1026]
[8]
  neointimal proliferation: reduction in the neointimal proliferation
  nitrite/nitrate plasma levels: increase in nitrite/nitrate plasma levels

## CC(=O)Oc1ccccc1C(=O)Oc1cccc(CO[N+](=O)[O-])c1 [nitric oxide releasing aspirin]
[9]
  vascular inflammation and apoptosis during vascular remodeling: reduced the vascular inflammation and promoted apoptosis

## poly thiolated form of bovine serum albumin: poly thiolated form of bovine serum albumin modified to include several S-nitrosothiol groups
[7]
  intimal proliferation and platelet deposition: inhibited intimal proliferation and platelet deposition
